Results: patent publication US8952163B2, “Substituted hydroxamic acids and uses thereof” (Millennium Pharmaceuticals, Inc., priority 2010, dated 2015)

Molecular target: T1, purified human HDAC6 (Homo sapiens, UniProt Q9UBN7)
T1 construct: purchased BPS Bioscience 5006
T1 sequence (Q9UBN7 1-1215): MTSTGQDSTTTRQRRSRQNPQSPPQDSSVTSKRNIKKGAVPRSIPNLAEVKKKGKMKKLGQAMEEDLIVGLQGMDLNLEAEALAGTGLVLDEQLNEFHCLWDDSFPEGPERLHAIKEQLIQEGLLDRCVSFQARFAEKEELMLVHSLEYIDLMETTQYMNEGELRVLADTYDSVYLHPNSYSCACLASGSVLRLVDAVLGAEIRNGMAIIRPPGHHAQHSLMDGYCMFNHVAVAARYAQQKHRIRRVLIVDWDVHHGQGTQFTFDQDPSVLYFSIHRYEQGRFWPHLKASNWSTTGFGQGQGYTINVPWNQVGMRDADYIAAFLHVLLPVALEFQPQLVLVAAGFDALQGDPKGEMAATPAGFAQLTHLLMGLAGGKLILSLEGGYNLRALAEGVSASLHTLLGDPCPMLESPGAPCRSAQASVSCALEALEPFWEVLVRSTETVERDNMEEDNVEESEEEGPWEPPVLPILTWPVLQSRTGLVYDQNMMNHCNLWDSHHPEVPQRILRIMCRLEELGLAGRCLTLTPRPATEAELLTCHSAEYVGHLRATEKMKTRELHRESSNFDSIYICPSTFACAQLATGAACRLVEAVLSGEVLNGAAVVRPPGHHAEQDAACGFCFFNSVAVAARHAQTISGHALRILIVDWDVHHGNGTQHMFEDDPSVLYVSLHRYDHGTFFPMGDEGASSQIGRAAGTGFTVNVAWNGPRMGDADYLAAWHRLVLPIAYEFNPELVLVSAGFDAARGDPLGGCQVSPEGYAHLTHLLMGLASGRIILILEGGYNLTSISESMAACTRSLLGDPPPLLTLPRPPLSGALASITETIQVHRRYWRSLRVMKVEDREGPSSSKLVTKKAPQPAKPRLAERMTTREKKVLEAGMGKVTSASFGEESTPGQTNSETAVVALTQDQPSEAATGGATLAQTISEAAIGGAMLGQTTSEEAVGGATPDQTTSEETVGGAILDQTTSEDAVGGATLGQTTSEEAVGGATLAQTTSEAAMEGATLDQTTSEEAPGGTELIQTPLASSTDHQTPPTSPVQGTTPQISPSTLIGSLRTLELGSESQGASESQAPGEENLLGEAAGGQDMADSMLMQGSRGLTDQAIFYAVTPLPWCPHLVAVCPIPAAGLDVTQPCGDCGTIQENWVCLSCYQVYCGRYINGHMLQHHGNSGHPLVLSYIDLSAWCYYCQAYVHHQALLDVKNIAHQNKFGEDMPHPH
Test: HDAC6 Enzyme Assay
Assay type: biochemical
Settings: test compound at 1.235 μM; substrate Ac-Arg-Gly-Lys(Ac)-AMC, 1 hour at 30° C.; read-out: Percent Inhibition at 1.235 μM
Experimental: To measure the inhibition of HDAC6 activity, purified human HDAC6 (BPS Bioscience; Cat. No. 5006) is incubated with substrate Ac-Arg-Gly-Lys(Ac)-AMC peptide (Bachem Biosciences; Cat. No. I-1925) for 1 hour at 30° C. in the presence of test compounds or vehicle DMSO control. The reaction is stopped with the HDAC inhibitor trichostatin A (Sigma; Cat. No. T8552) and the amount of Arg-Gly-Lys-AMC generated is quantitated by digestion with trypsin (Sigma; Cat. No. T1426) and subsequent measurement of the amount of AMC released using a fluorescent plate reader (Pherastar, BMG Technologies) set at Ex 340 nm and Em 460 nm. Concentration response curves are generated by calculating the fluorescence increase in test compound-treated samples relative to DMSO-treated controls, and percentage inhibition values at a single concentration or enzyme inhibition (IC50) values are determined from those curves. One skilled in the art will appreciate that the values generated either as percentage inhibition at a single concentration or IC50 values are subject to experimental variation.

SMILES	inhibition at 1.235 µM
CCCCOc1ccc(S(=O)(=O)N2CCc3nc(C(=O)NO)ccc3C2)cc1 [Compound I-60, 6-[(4-butoxyphenyl)sulfonyl]-N-hydroxy-5,6,7,8-tetrahydro-1,6-naphthyridine-2-carboxamide]	75.8%
CCCCS(=O)(=O)N1CCc2nc(C(=O)NO)ccc2C1 [Compound I-61, 6-(butylsulfonyl)-N-hydroxy-5,6,7,8-tetrahydro-1,6-naphthyridine-2-carboxamide]	-3.95%
O=C(NO)c1cnc2c(c1)CN(S(=O)(=O)c1ccc(C(F)(F)F)cc1)CC2 [Compound I-62, N-hydroxy-6-{[4-(trifluoromethyl)phenyl]sulfonyl}-5,6,7,8-tetrahydro-1,6-naphthyridine-3-carboxamide]	94.7%
